According to PubChem BioAssay AID2060510 (Molecular Pharmacology Branch, DTP, NCI, 2025):

System: 439559-082-T-J2-PDC spheroids viability
Experiment: Anticancer human tumor 439559-082-T-J2-PDC patient-derived colon adenocarcinoma cell line growth inhibition [GQUAD]
Settings: for IC50: curve of first compound; for viability, T/C: stronger effect = lower value; active = viability on the fitted dose curve at most 10% of control; inactive = the rest
Summary of the method: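 Tumor cells were grown as complex spheroids with HUVEC endothelial cells and mesenchymal stem cells as stroma. G-quadruplex stabilizers were combined with targeted agents over half-log dilutions from near the clinical Cmax, or from 10 microM.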

[1] = second compound 0.0316 µM, first compound 0.0316 µM
[2] = second compound 0.0316 µM, first compound 0.1 µM
[3] = second compound 0.0316 µM, first compound 0.316 µM
[4] = second compound 0.0316 µM, first compound 1 µM
[5] = second compound 0.0316 µM, first compound 3.16 µM
[6] = second compound 0.0316 µM, first compound 10 µM
[7] = second compound 0.1 µM, first compound 0.0316 µM
[8] = second compound 0.1 µM, first compound 0.1 µM
[9] = second compound 0.1 µM, first compound 0.316 µM
[10] = second compound 0.1 µM, first compound 1 µM
[11] = second compound 0.1 µM, first compound 3.16 µM
[12] = second compound 0.1 µM, first compound 10 µM
[13] = second compound 0.316 µM, first compound 0.0316 µM
[14] = second compound 0.316 µM, first compound 0.1 µM
[15] = second compound 0.316 µM, first compound 0.316 µM
[16] = second compound 0.316 µM, first compound 1 µM
[17] = second compound 0.316 µM, first compound 3.16 µM
[18] = second compound 0.316 µM, first compound 10 µM
[19] = second compound 1 µM, first compound 0.0316 µM
[20] = second compound 1 µM, first compound 0.1 µM
[21] = second compound 1 µM, first compound 0.316 µM
[22] = second compound 1 µM, first compound 1 µM
[23] = second compound 1 µM, first compound 3.16 µM
[24] = second compound 1 µM, first compound 10 µM
[25] = second compound 3.16 µM, first compound 0.0316 µM
[26] = second compound 3.16 µM, first compound 0.1 µM
[27] = second compound 3.16 µM, first compound 0.316 µM
[28] = second compound 3.16 µM, first compound 1 µM
[29] = second compound 3.16 µM, first compound 3.16 µM
[30] = second compound 3.16 µM, first compound 10 µM
[31] = second compound 10 µM, first compound 0.0316 µM
[32] = second compound 10 µM, first compound 0.1 µM
[33] = second compound 10 µM, first compound 0.316 µM
[34] = second compound 10 µM, first compound 1 µM
[35] = second compound 10 µM, first compound 3.16 µM
[36] = second compound 10 µM, first compound 10 µM
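Also: spheroids exposed to the agents for 7 days before readout.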
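For viability, T/C in this document: percent of luminescence signal in DMSO vehicle wells taken as 100% viability.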

O=C(NO)c1cnc(N2CCN(S(=O)(=O)c3ccc4ccccc4c3)CC2)nc1 + CN(C)c1ccc(Nc2c3ccc(NC(=O)CCN4CCCC4)cc3nc3cc(NC(=O)CCN4CCCC4)ccc23)cc1
inactive: viability, T/C [1] 96.5% | viability, T/C [2] 83.4% | viability, T/C [3] 69.9% | viability, T/C [7] 99.8% | viability, T/C [8] 85.2% | viability, T/C [9] 61.5% | viability, T/C [13] 98.3% | viability, T/C [14] 82% | viability, T/C [15] 54.6% | viability, T/C [19] 83.1% | viability, T/C [20] 87.2% | viability, T/C [21] 62.5% | viability, T/C [25] 88.2% | viability, T/C [26] 85.2% | viability, T/C [27] 62.5% | viability, T/C [31] 98.5% | viability, T/C [32] 80.9% | viability, T/C [33] 58.5%
406 nM: IC50 (second compound 1 µM)
393 nM: IC50 (second compound 0.1 µM)
445 nM: IC50 (second compound 0.0316 µM)
365 nM: IC50 (second compound 10 µM)
334 nM: IC50 (second compound 0.316 µM)
active: viability, T/C [4] 2.76% | viability, T/C [5] 0.18% | viability, T/C [6] 0.23% | viability, T/C [10] 5.02% | viability, T/C [11] 0.16% | viability, T/C [12] 0.17% | viability, T/C [16] 3.28% | viability, T/C [17] 0.16% | viability, T/C [18] 0.13% | viability, T/C [22] 4.71% | viability, T/C [23] 0.12% | viability, T/C [24] 0.19% | viability, T/C [28] 2.43% | viability, T/C [29] 0.12% | viability, T/C [30] 0.2% | viability, T/C [34] 5.85% | viability, T/C [35] 0.23% | viability, T/C [36] 0.19%
402 nM: IC50 (second compound 3.16 µM)

CC(C)n1c(=O)n(C)c2cnc3cc(F)c(-c4ccc(OCCCN5CCCCC5)nc4)cc3c21 + Cc1[nH]c2ccc(F)cc2c1-c1nc2c3cccnc3c3ncccc3c2[nH]1
inactive: viability, T/C [1] 112% | viability, T/C [2] 94.7% | viability, T/C [3] 126% | viability, T/C [4] 125% | viability, T/C [5] 130% | viability, T/C [6] 102% | viability, T/C [7] 116% | viability, T/C [8] 110% | viability, T/C [9] 117% | viability, T/C [10] 123% | viability, T/C [11] 139% | viability, T/C [12] 100% | viability, T/C [13] 98.7% | viability, T/C [14] 104% | viability, T/C [15] 127% | viability, T/C [16] 122% | viability, T/C [17] 128% | viability, T/C [18] 96.4% | viability, T/C [19] 106% | viability, T/C [20] 103% | viability, T/C [21] 118% | viability, T/C [22] 125% | viability, T/C [23] 113% | viability, T/C [24] 113% | viability, T/C [25] 90% | viability, T/C [26] 88% | viability, T/C [27] 107% | viability, T/C [28] 102% | viability, T/C [29] 89.9% | viability, T/C [30] 66.7% | viability, T/C [31] 85.1% | viability, T/C [32] 83.4% | viability, T/C [33] 98.8% | viability, T/C [34] 98.8% | viability, T/C [35] 99.6% | viability, T/C [36] 84.8%
> 10000 nM: IC50 (second compound 0.0316 µM) | IC50 (second compound 0.1 µM) | IC50 (second compound 0.316 µM) | IC50 (second compound 1 µM) | IC50 (second compound 3.16 µM) | IC50 (second compound 10 µM)

Cn1ncnc1[C@H]1c2n[nH]c(=O)c3cc(F)cc(c23)N[C@@H]1c1ccc(F)cc1 + Cc1cnc(CNC(=O)c2c(=O)c3ccc(N4CCCN(C)CC4)nc3n3c2sc2ccccc23)cn1
> 316 nM: IC50 (second compound 0.0316 µM) | IC50 (second compound 0.1 µM) | IC50 (second compound 0.316 µM) | IC50 (second compound 1 µM) | IC50 (second compound 3.16 µM) | IC50 (second compound 10 µM)
inactive: viability, T/C (second compound 0.0316 µM, first compound 0.000999 µM) 96.2% | viability, T/C (second compound 0.0316 µM, first compound 0.00316 µM) 92% | viability, T/C (second compound 0.0316 µM, first compound 0.00999 µM) 102% | viability, T/C [1] 99.7% | viability, T/C (second compound 0.0316 µM, first compound 0.0999 µM) 103% | viability, T/C [3] 94.8% | viability, T/C (second compound 0.1 µM, first compound 0.000999 µM) 109% | viability, T/C (second compound 0.1 µM, first compound 0.00316 µM) 84.8% | viability, T/C (second compound 0.1 µM, first compound 0.00999 µM) 95.8% | viability, T/C [7] 88% | viability, T/C (second compound 0.1 µM, first compound 0.0999 µM) 87.3% | viability, T/C [9] 79.6% | viability, T/C (second compound 0.316 µM, first compound 0.000999 µM) 93.8% | viability, T/C (second compound 0.316 µM, first compound 0.00316 µM) 85.5% | viability, T/C (second compound 0.316 µM, first compound 0.00999 µM) 93% | viability, T/C [13] 82.6% | viability, T/C (second compound 0.316 µM, first compound 0.0999 µM) 88.6% | viability, T/C [15] 74.4% | viability, T/C (second compound 1 µM, first compound 0.000999 µM) 72.2% | viability, T/C (second compound 1 µM, first compound 0.00316 µM) 81.5% | viability, T/C (second compound 1 µM, first compound 0.00999 µM) 74.3% | viability, T/C [19] 76% | viability, T/C (second compound 1 µM, first compound 0.0999 µM) 81.6% | viability, T/C [21] 64.8% | viability, T/C (second compound 3.16 µM, first compound 0.000999 µM) 72.1% | viability, T/C (second compound 3.16 µM, first compound 0.00316 µM) 70.8% | viability, T/C (second compound 3.16 µM, first compound 0.00999 µM) 76.5% | viability, T/C [25] 71% | viability, T/C (second compound 3.16 µM, first compound 0.0999 µM) 73.8% | viability, T/C [27] 67.8% | viability, T/C (second compound 10 µM, first compound 0.000999 µM) 65% | viability, T/C (second compound 10 µM, first compound 0.00316 µM) 65% | viability, T/C (second compound 10 µM, first compound 0.00999 µM) 67.4% | viability, T/C [31] 63.5% | viability, T/C (second compound 10 µM, first compound 0.0999 µM) 70.9% | viability, T/C [33] 63.9%
